In US11014941B2, “Pyrrolopyrimidine derivatives useful as inhibitors of influenza virus replication” (priority 2017, dated 2021) one finds IC50 data, which are given here for 64 molecules.

A value given as a limit tells only on which side of the number the result lay.

In the experiment the target is Influenza PB2 (Influenza A virus, UniProt P03428). Nature of the experiment: biochemical. The conditions noted are these: read-out: Influenza PB2 affinity, IC50. Format: binding.
Sequence of Influenza PB2 (P03428 whole entry, looked up): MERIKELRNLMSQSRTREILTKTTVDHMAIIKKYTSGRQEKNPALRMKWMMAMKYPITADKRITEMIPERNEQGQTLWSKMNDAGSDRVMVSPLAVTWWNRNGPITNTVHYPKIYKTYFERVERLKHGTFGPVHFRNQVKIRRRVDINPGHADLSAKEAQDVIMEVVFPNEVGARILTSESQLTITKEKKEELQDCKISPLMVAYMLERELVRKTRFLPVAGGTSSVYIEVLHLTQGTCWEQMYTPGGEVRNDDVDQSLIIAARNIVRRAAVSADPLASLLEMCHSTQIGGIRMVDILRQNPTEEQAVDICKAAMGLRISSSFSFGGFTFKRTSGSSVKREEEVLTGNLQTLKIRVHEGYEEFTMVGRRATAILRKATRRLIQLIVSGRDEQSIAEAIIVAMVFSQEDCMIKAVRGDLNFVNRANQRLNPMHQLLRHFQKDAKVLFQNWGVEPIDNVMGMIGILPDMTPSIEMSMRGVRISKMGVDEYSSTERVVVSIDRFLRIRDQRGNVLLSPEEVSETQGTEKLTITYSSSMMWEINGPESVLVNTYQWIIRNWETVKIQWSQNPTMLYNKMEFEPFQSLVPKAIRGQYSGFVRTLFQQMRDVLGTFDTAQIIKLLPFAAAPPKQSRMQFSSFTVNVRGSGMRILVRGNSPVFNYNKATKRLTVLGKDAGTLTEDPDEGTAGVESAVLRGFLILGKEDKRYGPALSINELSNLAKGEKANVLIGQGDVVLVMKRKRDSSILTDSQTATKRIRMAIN
In general, IC50 refers to the concentration that gives 50% inhibition. As for `O=C(O)[C@@H]1CCCC[C@H]1n1ccc2cnc(-c3c[nH]c4ncc(F)cc34)nc21` (racemic) [Compound B15], the concentration for half-maximal inhibition (IC50) fell in the range of 1 to 10 µM. Then `CNC(=O)[C@@H]1CCCC[C@H]1n1cc(F)c2cnc(-c3c[nH]c4ncc(Cl)cc34)nc21` (racemic) [Compound B95], with 10 to 100 µM. As for `CCOCCOCCCCC(=O)N[C@H]1CCC[C@@H](n2ccc3cnc(-c4c[nH]c5ncc(F)cc45)nc32)C1` (relative stereo) [Compound B100], the IC50 is 10 to 100 µM. For `O=C(O)[C@@H]1C2CCC(CC2)[C@H]1n1cc(-c2ccncc2F)c2cnc(-c3c[nH]c4ncc(Cl)cc34)nc21` (relative stereo) [Compound B211] the value was 1 to 10 µM; for `O=C(O)[C@@H]1C2CCC(CC2)[C@H]1n1cc(-c2ccncc2Cl)c2cnc(-c3c[nH]c4ncc(Cl)cc34)nc21` (relative stereo) [Compound B212], 1 to 10 µM; for `O=C(O)[C@@H]1CCCC[C@H]1n1ccc2cnc(-c3c[nH]c4ncc(F)cc34)nc21` (single isomer, unassigned) [Compound B17], < 1 µM. For `O=C(O)[C@H]1CCCC1n1ccc2cnc(-c3c[nH]c4ncc(F)cc34)nc21` (single isomer, unassigned) [Compound B21] the value was 1 to 10 µM; for `O=C(O)[C@H]1CCCC1n1ccc2cnc(-c3c[nH]c4ncc(F)cc34)nc21` (single isomer, unassigned) [Compound B22], 1 to 10 µM; for `O=C(O)[C@@H]1CCCC[C@H]1n1ccc2cnc(-c3c[nH]c4ncc(F)cc34)nc21` (single isomer, unassigned) [Compound B24], < 1 µM.

Consider `CNC(=O)[C@@H]1CCCC[C@H]1n1cc(F)c2cnc(-c3c[nH]c4ncc(Cl)cc34)nc21` (single isomer, unassigned) [Compound B93], for which the IC50 fell in the range of 1 to 10 µM. Take `O=C(O)[C@H]1C2CCC(CC2)C1n1cc(Cl)c2cnc(-c3c[nH]c4ncc(F)cc34)nc21` (single isomer, unassigned) [Compound B132]: the IC50 was < 1 µM.

As to `O=C(O)[C@H]1C2CCC(CC2)C1n1cc(Cl)c2cnc(-c3c[nH]c4ncc(F)cc34)nc21` (single isomer, unassigned) [Compound B133], the IC50 is < 1 µM.

As to `O=C(O)[C@@H]1C2CCC(CC2)C1n1cc(Cl)c2cnc(-c3c[nH]c4ncc(Cl)cc34)nc21` (single isomer, unassigned) [Compound B136], the IC50 is 1 to 10 µM. As to `O=C(O)[C@@H]1C2CCC(CC2)C1n1cc(Cl)c2cnc(-c3c[nH]c4ncc(Cl)cc34)nc21` (single isomer, unassigned) [Compound B137], the IC50 was < 1 µM.

`O=C(O)[C@@H]1C2CCC(CC2)C1n1cc(F)c2cnc(-c3c[nH]c4ncc(Cl)cc34)nc21` (single isomer, unassigned) [Compound B143]: the IC50 was < 1 µM.

On to `O=C(O)[C@@H]1C2CCC(CC2)C1n1cc(F)c2cnc(-c3c[nH]c4ncc(Cl)cc34)nc21` (single isomer, unassigned) [Compound B144], for which the concentration for half-maximal inhibition (IC50) is < 1 µM.

On to `O=C(O)[C@@H]1C2CCC(CC2)C1n1cc(-c2ccncc2)c2cnc(-c3c[nH]c4ncc(Cl)cc34)nc21` (single isomer, unassigned) [Compound B189], for which the IC50 is 1 to 10 µM.

As for `O=C(O)[C@@H]1C2CCC(CC2)C1n1cc(-c2ccncc2)c2cnc(-c3c[nH]c4ncc(Cl)cc34)nc21` (single isomer, unassigned) [Compound B190], the IC50 lay in the range of 1 to 10 µM. As for `CNC(=O)[C@@H]1C2CCC(CC2)C1n1cc(F)c2cnc(-c3c[nH]c4ncc(Cl)cc34)nc21` (single isomer, unassigned) [Compound B194], the IC50 fell in the range of 1 to 10 µM. Then `CNC(=O)[C@@H]1C2CCC(CC2)C1n1cc(F)c2cnc(-c3c[nH]c4ncc(Cl)cc34)nc21` (single isomer, unassigned) [Compound B195], with 10 to 100 µM; and `CN(C)C(=O)Cn1ccc2c(-c3c[nH]c4ncc(F)cc34)ncnc21` [Compound A1], with 10 to 100 µM; and `COC(=O)CCn1ccc2c(-c3c[nH]c4ncc(F)cc34)ncnc21` [Compound A2], with 10 to 100 µM. For `O=C(O)Cn1ccc2c(-c3c[nH]c4ncc(F)cc34)ncnc21` [Compound A3] the value was 1 to 10 µM; for `CN(C)C(=O)CCn1ccc2c(-c3c[nH]c4ncc(F)cc34)ncnc21` [Compound A4], 10 to 100 µM. For `O=C(O)CCn1ccc2c(-c3c[nH]c4ncc(F)cc34)ncnc21` [Compound A5] the value was 10 to 100 µM. As to `O=C(O)CNC(=O)Cn1ccc2c(-c3c[nH]c4ncc(F)cc34)ncnc21` [Compound A6], the IC50 lay within 10 to 100 µM.

Regarding `C[C@H](NC(=O)Cn1ccc2c(-c3c[nH]c4ncc(F)cc34)ncnc21)C(=O)O` [Compound A7], the IC50 lay within 10 to 100 µM.

For the molecule `COC(=O)[C@H](Cc1ccccc1)NC(=O)Cn1ccc2c(-c3c[nH]c4ncc(F)cc34)ncnc21` [Compound A8], the IC50 is > 100 µM. For `O=C(O)[C@H]1CCCN1C(=O)Cn1ccc2c(-c3c[nH]c4ncc(F)cc34)ncnc21` [Compound A9] the value was 10 to 100 µM.

For `COC(=O)[C@H](C)NC(=O)Cn1ccc2c(-c3c[nH]c4ncc(F)cc34)ncnc21` [Compound A10], the IC50 is 10 to 100 µM. For `O=C(Cn1ccc2c(-c3c[nH]c4ncc(F)cc34)ncnc21)N[C@@H](Cc1ccccc1)C(=O)O` [Compound A11] the value was 10 to 100 µM; for `COC(=O)C[C@H](NC(=O)Cn1ccc2c(-c3c[nH]c4ncc(F)cc34)ncnc21)C(=O)OC` [Compound A12], > 100 µM; for `COC(=O)[C@H](CO)NC(=O)Cn1ccc2c(-c3c[nH]c4ncc(F)cc34)ncnc21` [Compound A13], > 100 µM. Then `O=C(O)C[C@H](NC(=O)Cn1ccc2c(-c3c[nH]c4ncc(F)cc34)ncnc21)C(=O)O` [Compound A14], with 1 to 10 µM; and `COC(=O)[C@H]1CCCN1C(=O)Cn1ccc2c(-c3c[nH]c4ncc(F)cc34)ncnc21` [Compound A15], with > 100 µM; and `COC(=O)CNC(=O)CCn1ccc2c(-c3c[nH]c4ncc(F)cc34)ncnc21` [Compound A16], with > 100 µM. Then `NC(=O)C[C@H](NC(=O)Cn1ccc2c(-c3c[nH]c4ncc(F)cc34)ncnc21)C(=O)O` [Compound A17], with 1 to 10 µM. On to `COC(=O)[C@@H](Cc1ccccc1)NC(=O)CCn1ccc2c(-c3c[nH]c4ncc(F)cc34)ncnc21` [Compound A18], for which the half-maximal inhibitory concentration (IC50) was > 100 µM. Then `COC(=O)[C@H](CO)NC(=O)CCn1ccc2c(-c3c[nH]c4ncc(F)cc34)ncnc21` [Compound A19], with 10 to 100 µM. For `O=C(Cn1ccc2c(-c3c[nH]c4ncc(F)cc34)ncnc21)N[C@@H](CO)C(=O)O` [Compound A20], the IC50 lay in the range of 1 to 10 µM.

With `CN(C)C(=O)Cn1ccc2cnc(-c3c[nH]c4ncc(F)cc34)nc21` [Compound B1], the half-maximal inhibitory concentration (IC50) lay within 10 to 100 µM. As for `CN(C)C(=O)CCn1ccc2cnc(-c3c[nH]c4ncc(F)cc34)nc21` [Compound B2], the IC50 fell in the range of 10 to 100 µM. Then `COC(=O)CCn1ccc2cnc(-c3c[nH]c4ncc(F)cc34)nc21` [Compound B3], with > 100 µM; and `O=C(O)Cn1ccc2cnc(-c3c[nH]c4ncc(F)cc34)nc21` [Compound B4], with 10 to 100 µM. For `O=C(O)CCn1ccc2cnc(-c3c[nH]c4ncc(F)cc34)nc21` [Compound B5] the value was 10 to 100 µM; for `CN(C)C(=O)CN1CCc2cnc(-c3c[nH]c4ncc(F)cc34)nc21` [Compound B6], 10 to 100 µM. Then `COC(=O)[C@H](C)NC(=O)Cn1ccc2cnc(-c3c[nH]c4ncc(F)cc34)nc21` [Compound B7], with > 100 µM. Consider `COC(=O)[C@H](Cc1ccccc1)NC(=O)Cn1ccc2cnc(-c3c[nH]c4ncc(F)cc34)nc21` [Compound B8], for which the IC50 was > 100 µM. On to `O=C(O)CN1CCc2cnc(-c3c[nH]c4ncc(F)cc34)nc21` [Compound B9], for which the IC50 is > 100 µM. Then `COC(=O)CNC(=O)Cn1ccc2cnc(-c3c[nH]c4ncc(F)cc34)nc21` [Compound B10], with > 100 µM; and `C[C@H](NC(=O)Cn1ccc2cnc(-c3c[nH]c4ncc(F)cc34)nc21)C(=O)O` [Compound B11], with 10 to 100 µM.

In the case of `CN(C)C(=O)CCN1CCc2cnc(-c3c[nH]c4ncc(F)cc34)nc21` [Compound B12], the IC50 lay within 10 to 100 µM. Then `O=C(O)CCN1CCc2cnc(-c3c[nH]c4ncc(F)cc34)nc21` [Compound B13], with 10 to 100 µM; and `O=C(Cn1ccc2cnc(-c3c[nH]c4ncc(F)cc34)nc21)N[C@@H](Cc1ccccc1)C(=O)O` [Compound B14], with 10 to 100 µM; and `O=C(O)[C@H]1CCC[C@@H]1n1ccc2cnc(-c3c[nH]c4ncc(F)cc34)nc21` [Compound B16], with 1 to 10 µM.

On to `O=C(O)/C=C/n1ccc2cnc(-c3c[nH]c4ncc(F)cc34)nc21` [Compound B18], for which the IC50 was 10 to 100 µM. For `COC(=O)[C@@H]1CCC[C@H]1n1ccc2cnc(-c3c[nH]c4ncc(F)cc34)nc21` [Compound B19] the value was 1 to 10 µM; for `COC(=O)[C@H]1CCCC[C@@H]1n1ccc2cnc(-c3c[nH]c4ncc(F)cc34)nc21` [Compound B20], 10 to 100 µM; for `COC(=O)/C=C/n1ccc2cnc(-c3c[nH]c4ncc(F)cc34)nc21` [Compound B23], 10 to 100 µM. Then `CCOCCOCCOCCNC(=O)[C@@H]1CCCC[C@H]1n1ccc2cnc(-c3c[nH]c4ncc(F)cc34)nc21` [Compound B25], with 1 to 10 µM; and `CCOCCOCCOCCN(C)C(=O)[C@@H]1CCCC[C@H]1n1ccc2cnc(-c3c[nH]c4ncc(F)cc34)nc21` [Compound B26], with 10 to 100 µM; and `CCOCCOCCOCCNC(=O)N[C@H]1CCC[C@@H](n2ccc3cnc(-c4c[nH]c5ncc(F)cc45)nc32)C1` [Compound B27], with 10 to 100 µM.

As to `CCOCCOCCOCC(=O)N[C@@H]1CCC[C@H](n2ccc3cnc(-c4c[nH]c5ncc(F)cc45)nc32)C1` [Compound B28], the IC50 is 10 to 100 µM. Then `CCOCCOCCOCCN(C)C(=O)N[C@H]1CCC[C@@H](n2ccc3cnc(-c4c[nH]c5ncc(F)cc45)nc32)C1` [Compound B29], with 10 to 100 µM.
